From US11442059B2, “Method for treating a chronic itch condition by administering small molecule MrgprX4 antagonists” (The Johns Hopkins University, priority 2017, dated 2022)

Columns and labels:
[1] = target: T1, MRGPRX2 (Homo sapiens, UniProt Q96LB1); assay: Cell membrane chromatography, MRGPRX2/CMC column; assay type: binding; conditions: affinity chromatography elution profile
T1 construct: expressed in transfected cells; host or cells: HEK293 (MRGPRX2-HEK) membranes on silica
T1 sequence (Q96LB1 1-330): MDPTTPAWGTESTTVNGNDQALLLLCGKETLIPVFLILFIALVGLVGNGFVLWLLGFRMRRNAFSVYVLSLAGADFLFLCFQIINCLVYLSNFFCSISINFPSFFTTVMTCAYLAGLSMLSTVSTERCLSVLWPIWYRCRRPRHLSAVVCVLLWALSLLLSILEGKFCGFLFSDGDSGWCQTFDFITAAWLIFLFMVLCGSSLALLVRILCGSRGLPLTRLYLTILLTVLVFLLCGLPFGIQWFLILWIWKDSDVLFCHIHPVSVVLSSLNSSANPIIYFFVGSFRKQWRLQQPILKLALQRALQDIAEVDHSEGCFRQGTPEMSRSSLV
Description: CMC analysis was performed with a Shimadzu LC-2010A apparatus that consisted of pumps, degasser, autosampler, column oven, and a diode-array detector (Shimadzu, Kyoto, Japan). The data were acquired by the Lab-solution program (Shimadzu). The mobile phase consisted of phosphate-buffered saline (PBS; 5 mM, pH 7.4) and was delivered at a flow rate of 0.2 ml/min. The stock solutions (100 μM) of lamotrigine were prepared by separately dissolving the standard drugs in methanol. Standard solutions at various concentrations were prepared by diluting the stock solutions with the mobile phase. The MRGPRX2/CMC and MRGPRX4/CMC column was prepared as follows. Briefly, MRGPRX4-expressed HEK293 cells (1×10^8) were harvested and centrifuged (1000 g, 10 min, at 4° C.). Cells were washed with physiological saline (pH=7.4) by centrifugation at 1000 g for 10 min at 4° C. Cells were lysed by ultrasonic in Tris-HCl (50 mM, pH=7.4) for 30 min and centrifuged twice at 1000 g for 10 min at 4° C. The collected supernatant was then centrifuged at 12000 g for 20 min at 4° C. and the pellet was resuspended in 5 ml ice-cold physiological saline solution. […] The cell membrane suspension was homogenized/adsorbed with the activated silica under vacuum with agitation at 4° C. overnight. […]

[2] = target: MRGPRX4-GFP (Homo sapiens, UniProt Q96LA9); assay: Receptor internalization assay, MRGPRX4-GFP HEK293 cells; assay type: cell-based; conditions: 37° C.
Chain of MRGPRX4-GFP (Q96LA9 whole entry, the tested form may be a part): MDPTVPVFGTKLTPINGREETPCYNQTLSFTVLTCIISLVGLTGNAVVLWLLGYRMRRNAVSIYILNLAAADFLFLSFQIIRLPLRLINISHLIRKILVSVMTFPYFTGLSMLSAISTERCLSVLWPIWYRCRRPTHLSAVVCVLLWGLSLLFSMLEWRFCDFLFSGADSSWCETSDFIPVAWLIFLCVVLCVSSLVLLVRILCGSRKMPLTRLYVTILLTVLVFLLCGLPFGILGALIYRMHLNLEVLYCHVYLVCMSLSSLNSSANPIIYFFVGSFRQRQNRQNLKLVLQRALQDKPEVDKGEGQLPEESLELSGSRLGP
Description: To label the drug with red-fluorescent dye, […] of LTG was dissolved in 50 μl dimethyformamide (DMF) first, and further diluted with 450 μl reaction buffer (0.1M sodium bicarbonate buffer, pH9.0) to obtain LTG at a concentration of 7.8 mM. Then, 50 μl of Texas-red-conjugated sulfonyl chloride (Thermo Fisher Scientific, T1905) dissolved in DMF at 10 mg ml−1 was slowly added into LTG solution. The reaction was incubated at 4° C. for 1 hour with continuous stirring. The mixture was then diluted into cell culture medium for further use. LTG labeled with Texas Red dye can create bright red-fluorescence with excitation/emission maxima ˜595/615 nm. HEK293 cells stably expressing Mrgpra1-GFP, Mrgprc11-GFP or MRGPRX4-GFP fusion protein were grown in DMEM with 10% FBS. After 4-6 hours of serum starvation, cells were treated with either medium, dye alone, unlabeled LTG or Texas-Red-labeled LTG at 37° C. for 15 or 60 min. Cells were washed with PBS and fixed with 4% paraformaldehyde in PBS. The subcellular localization of Mrgpr-GFP or drug was visualized under a confocal fluorescence microscope with a 400× magnification (Zeiss LSM 700).

[3] = target: T2, mouse Mrgpra1 (Mus musculus, UniProt Q91WW5); assay: Ca2+ imaging / EC50 determination in HEK293 cells expressing Mrgpra1; assay type: cell-based
T2 construct: expressed in transfected cells; host or cells: HEK293
T2 sequence (Q91WW5 1-304): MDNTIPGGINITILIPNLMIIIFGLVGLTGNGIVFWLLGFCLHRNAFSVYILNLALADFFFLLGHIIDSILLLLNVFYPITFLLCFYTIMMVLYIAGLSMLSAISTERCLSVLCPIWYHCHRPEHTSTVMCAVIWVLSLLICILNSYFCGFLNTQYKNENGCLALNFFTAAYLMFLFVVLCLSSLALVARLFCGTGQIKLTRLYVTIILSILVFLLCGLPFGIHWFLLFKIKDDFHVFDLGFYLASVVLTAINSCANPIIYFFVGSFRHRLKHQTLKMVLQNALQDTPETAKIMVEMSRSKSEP
Description: Lamotrigine (LTG), allopurinol, carbamazepine and oxcarbazepine (all from Sigma) were prepared fresh on the day of the experiment. These drugs were dissolved into dimethyl sulfoxide (DMSO) first, and then were diluted at least 10000× into calcium imaging buffer before use. The final concentrations of drugs for each experiment were indicated in the corresponding figure legend.
In initial experiments, HEK293 cells were plated on 100 μg/ml poly-D-lysine coated glass cover slips, and transiently transfected with vector containing Mrgprs gene, after 24-48 hours of culture, cells were loaded with Fura 2-acetomethoxy ester calcium indicator (0.5 μM, Molecular Probes) along with pluronic F-127 dispersing agent (0.1%, Molecular Probes) for 30 minutes in the dark at 37° C., then washed with calcium imaging buffer (CIB; NaCl 125 mM, KCl 3 mM, CaCl2 2.5 mM, MgCl2 0.6 mM, HEPES 10 mM, glucose 20 mM, NaHCO3 1.2 mM, sucrose 20 mM, brought to pH 7.4 with NaOH). Drugs were added to Fura 2-loaded cells and intracellular free calcium was measured using 340 nm and 380 nm excitation wavelengths with emission measured at 520 nm with a microscope based imaging system (Nikon Eclipse TE200). Changes in emission fluorescence ratios at 340/380 nm excitation were continuously monitored at 1 second intervals. Later, experiments were performed using Mrgpra1-GFP, Mrgprc11-GFP and MRGPRX4-GFP stable cell lines to confirm the findings obtained from the transiently expressing cells.
Mrgpra1 or both wild-type and mutant MRGPRX4 stably expressed HEK cells were plated overnight in 100 μl culture media on 96-well plates. […] After 1 hour of incubation at 37° C., cells were allowed to recover for 10 minutes in the dark at room temperature prior to performing intracellular calcium mobilization assay in a FLEXSTATION® multi-mode plate reader (Molecular Devices). […] Responses were determined by subtracting the minimum signal (at the basal level before adding the drug) from the maximum signal (obtained after stimulating with the drug). […]

SMILES: Nc1nnc(-c2cccc(Cl)c2Cl)c(N)n1 [LTG, Lamotrigine]
- retention on MRGPRX2/CMC column [1]: cannot retain
- internalization of MRGPRX4-GFP [2]: can induce the internalization
- EC50 ([3]; HEK293 cells, Ca2+ assay): ~30 µM
- activation of mouse Mrgpra1 (Ca2+ imaging) ([3]; Mrgprs individually expressed in HEK293 cells): specifically activated
